The record followed here is article PMC3382171 (PLoS ONE, 2012).

Assay in all cases: biochemical
Set-up in all cases: Invitrogen SelectScreen kinase panel, percent inhibition at 1 uM, ATP at Km
Holding throughout (conditions): read-out: Invitrogen KSS %Inh at 1 µM

The target of one experiment is ACVR1B (ALK4) (Homo sapiens, UniProt P36896). The method, boiled down:
(§1)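 Commercial kinase panel screens run with ATP at the Km for each kinase. Compounds tested at 1 µM final concentration; values are % inhibition of phosphorylation relative to control.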

For another experiment, the target named is CAMK4 (CaMKIV) (Homo sapiens, UniProt Q16566). An outline of the steps:
as §1

A further experiment has as its target CSK (Homo sapiens, UniProt P41240). An outline of the steps: as §1
The next experiment has as its target CSNK2A1 (CK2 alpha 1) (Homo sapiens, UniProt P68400). An outline of the steps:
as §1

For another experiment, the target named is DAPK3 (ZIPK) (Homo sapiens, UniProt O43293). The method, boiled down:
as §1

In a further experiment the target is EGFR (ErbB1) (Homo sapiens, UniProt P00533). An outline of the steps: as §1
The target of another experiment is FGFR4 (Homo sapiens, UniProt P22455). An outline of the steps:
as §1

The target of another experiment is FLT3 (Homo sapiens, UniProt P36888). An outline of the steps: as §1
The target of a further experiment is FLT3 D835Y (Homo sapiens, UniProt P36888, D835Y). The method, boiled down:
as §1

Another experiment has as its target FRAP1 (mTOR) (Homo sapiens, UniProt P42345). An outline of the steps: as §1
The target in a further experiment is KIT (Homo sapiens, UniProt P10721). An outline of the steps: as §1
For a further experiment, the target named is MAP2K6 (MKK6) (Homo sapiens, UniProt P52564). An outline of the steps: as §1
For a further experiment, the target named is MAPK8 (JNK1) (Homo sapiens, UniProt P45983). The method, boiled down: as §1
A further experiment addresses MAPKAPK2 (Homo sapiens, UniProt P49137). The method, boiled down: as §1
A further experiment addresses PAK6 (Homo sapiens, UniProt Q9NQU5). The method, boiled down:
as §1

Another experiment addresses PLK2 (Homo sapiens, UniProt Q9NYY3). An outline of the steps: as §1
The target in the next experiment is RPS6KA1 (RSK1) (Homo sapiens, UniProt Q15418). An outline of the steps: as §1
The target of the next experiment is SGKL (SGK3) (Homo sapiens, UniProt Q96BR1). An outline of the steps: as §1
Another experiment addresses SRC (Homo sapiens, UniProt P12931). The method, boiled down:
as §1

In another experiment the target is STK22B (TSSK2) (Homo sapiens, UniProt Q96PF2). An outline of the steps: as §1
The target of a further experiment is YES1 (Homo sapiens, UniProt P07947). The method, boiled down: as §1
The target of the next experiment is ZAP70 (Homo sapiens, UniProt P43403). The method, boiled down: as §1
ZAP70, sequence (P43403 whole entry): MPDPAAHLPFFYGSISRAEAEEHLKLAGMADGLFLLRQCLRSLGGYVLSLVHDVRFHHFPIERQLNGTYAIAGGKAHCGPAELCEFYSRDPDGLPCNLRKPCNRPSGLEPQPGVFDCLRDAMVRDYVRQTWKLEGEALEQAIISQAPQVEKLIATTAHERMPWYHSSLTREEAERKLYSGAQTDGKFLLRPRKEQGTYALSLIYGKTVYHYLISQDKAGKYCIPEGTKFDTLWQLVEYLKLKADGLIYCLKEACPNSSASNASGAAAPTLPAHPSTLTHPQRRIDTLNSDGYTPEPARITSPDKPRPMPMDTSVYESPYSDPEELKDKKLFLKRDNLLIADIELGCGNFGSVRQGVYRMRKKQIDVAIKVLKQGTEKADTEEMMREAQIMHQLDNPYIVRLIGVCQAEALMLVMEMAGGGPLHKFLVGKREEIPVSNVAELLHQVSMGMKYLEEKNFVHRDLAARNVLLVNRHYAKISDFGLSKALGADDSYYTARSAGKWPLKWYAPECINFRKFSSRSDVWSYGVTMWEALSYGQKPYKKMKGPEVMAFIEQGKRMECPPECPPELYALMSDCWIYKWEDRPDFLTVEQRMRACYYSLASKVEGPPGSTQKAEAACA

MAP2K6 (MKK6), sequence (P52564 whole entry): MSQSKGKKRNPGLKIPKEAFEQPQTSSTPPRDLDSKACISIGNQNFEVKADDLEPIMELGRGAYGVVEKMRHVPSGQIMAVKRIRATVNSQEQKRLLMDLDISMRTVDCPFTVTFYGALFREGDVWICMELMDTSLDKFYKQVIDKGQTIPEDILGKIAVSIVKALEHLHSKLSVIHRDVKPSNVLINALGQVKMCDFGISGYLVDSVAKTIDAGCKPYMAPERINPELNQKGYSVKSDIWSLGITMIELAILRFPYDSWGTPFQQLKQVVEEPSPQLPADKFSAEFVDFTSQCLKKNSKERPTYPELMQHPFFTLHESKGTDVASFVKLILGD
CAMK4 (CaMKIV), sequence (Q16566 whole entry): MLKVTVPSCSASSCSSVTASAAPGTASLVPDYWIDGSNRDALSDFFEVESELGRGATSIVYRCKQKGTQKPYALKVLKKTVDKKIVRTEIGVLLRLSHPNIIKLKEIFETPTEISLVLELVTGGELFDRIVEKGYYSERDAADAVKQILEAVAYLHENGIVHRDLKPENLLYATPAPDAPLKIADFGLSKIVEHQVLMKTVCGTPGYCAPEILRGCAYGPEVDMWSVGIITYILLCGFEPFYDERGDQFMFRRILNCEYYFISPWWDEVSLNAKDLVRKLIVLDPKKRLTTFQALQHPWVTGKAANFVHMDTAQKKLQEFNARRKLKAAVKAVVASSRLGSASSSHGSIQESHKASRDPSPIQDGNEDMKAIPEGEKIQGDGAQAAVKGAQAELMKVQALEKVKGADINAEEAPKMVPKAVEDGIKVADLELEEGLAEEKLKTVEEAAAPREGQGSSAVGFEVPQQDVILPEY
CSK, sequence (P41240 whole entry): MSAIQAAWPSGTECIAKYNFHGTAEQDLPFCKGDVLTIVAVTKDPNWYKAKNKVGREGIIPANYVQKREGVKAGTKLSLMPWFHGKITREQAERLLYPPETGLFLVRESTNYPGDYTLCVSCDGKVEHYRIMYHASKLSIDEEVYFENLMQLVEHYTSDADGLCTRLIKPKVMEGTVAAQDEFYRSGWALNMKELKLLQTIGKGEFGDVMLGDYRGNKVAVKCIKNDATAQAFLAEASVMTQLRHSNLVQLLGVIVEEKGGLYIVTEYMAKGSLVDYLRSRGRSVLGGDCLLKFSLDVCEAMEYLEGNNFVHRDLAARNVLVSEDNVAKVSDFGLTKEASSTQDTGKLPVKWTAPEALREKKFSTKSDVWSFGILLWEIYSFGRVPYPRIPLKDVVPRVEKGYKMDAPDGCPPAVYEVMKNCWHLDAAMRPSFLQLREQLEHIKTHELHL
EGFR (ErbB1), sequence (P00533 whole entry): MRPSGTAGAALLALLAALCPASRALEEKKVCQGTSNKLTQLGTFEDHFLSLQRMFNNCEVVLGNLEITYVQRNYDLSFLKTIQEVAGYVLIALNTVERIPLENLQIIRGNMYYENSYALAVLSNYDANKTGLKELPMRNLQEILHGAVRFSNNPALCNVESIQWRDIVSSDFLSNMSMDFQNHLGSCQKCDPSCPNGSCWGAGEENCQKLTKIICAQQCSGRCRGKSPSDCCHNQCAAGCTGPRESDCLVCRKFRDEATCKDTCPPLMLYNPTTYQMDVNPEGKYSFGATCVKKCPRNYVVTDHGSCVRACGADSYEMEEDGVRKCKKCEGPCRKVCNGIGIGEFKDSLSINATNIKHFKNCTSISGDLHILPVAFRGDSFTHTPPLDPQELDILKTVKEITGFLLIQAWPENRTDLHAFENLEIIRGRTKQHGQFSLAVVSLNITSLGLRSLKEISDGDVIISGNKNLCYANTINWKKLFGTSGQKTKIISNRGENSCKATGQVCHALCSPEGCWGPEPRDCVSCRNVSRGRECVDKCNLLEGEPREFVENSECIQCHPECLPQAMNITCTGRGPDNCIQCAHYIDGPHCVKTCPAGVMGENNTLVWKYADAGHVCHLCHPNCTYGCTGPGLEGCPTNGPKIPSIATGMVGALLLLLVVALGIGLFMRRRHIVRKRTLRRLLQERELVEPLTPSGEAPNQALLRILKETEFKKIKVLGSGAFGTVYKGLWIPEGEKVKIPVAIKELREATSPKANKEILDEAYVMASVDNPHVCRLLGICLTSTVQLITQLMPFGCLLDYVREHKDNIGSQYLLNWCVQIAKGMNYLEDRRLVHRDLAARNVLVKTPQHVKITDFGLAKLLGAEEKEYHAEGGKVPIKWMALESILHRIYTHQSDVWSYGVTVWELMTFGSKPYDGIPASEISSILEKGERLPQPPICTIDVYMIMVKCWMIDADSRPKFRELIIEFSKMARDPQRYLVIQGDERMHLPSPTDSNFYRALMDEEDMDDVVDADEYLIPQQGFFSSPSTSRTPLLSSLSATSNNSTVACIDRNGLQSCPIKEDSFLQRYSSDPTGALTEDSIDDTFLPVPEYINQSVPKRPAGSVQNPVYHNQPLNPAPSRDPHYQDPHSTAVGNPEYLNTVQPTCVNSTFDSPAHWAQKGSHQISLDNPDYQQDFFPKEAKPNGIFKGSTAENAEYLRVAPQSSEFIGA
FGFR4, sequence (P22455 whole entry): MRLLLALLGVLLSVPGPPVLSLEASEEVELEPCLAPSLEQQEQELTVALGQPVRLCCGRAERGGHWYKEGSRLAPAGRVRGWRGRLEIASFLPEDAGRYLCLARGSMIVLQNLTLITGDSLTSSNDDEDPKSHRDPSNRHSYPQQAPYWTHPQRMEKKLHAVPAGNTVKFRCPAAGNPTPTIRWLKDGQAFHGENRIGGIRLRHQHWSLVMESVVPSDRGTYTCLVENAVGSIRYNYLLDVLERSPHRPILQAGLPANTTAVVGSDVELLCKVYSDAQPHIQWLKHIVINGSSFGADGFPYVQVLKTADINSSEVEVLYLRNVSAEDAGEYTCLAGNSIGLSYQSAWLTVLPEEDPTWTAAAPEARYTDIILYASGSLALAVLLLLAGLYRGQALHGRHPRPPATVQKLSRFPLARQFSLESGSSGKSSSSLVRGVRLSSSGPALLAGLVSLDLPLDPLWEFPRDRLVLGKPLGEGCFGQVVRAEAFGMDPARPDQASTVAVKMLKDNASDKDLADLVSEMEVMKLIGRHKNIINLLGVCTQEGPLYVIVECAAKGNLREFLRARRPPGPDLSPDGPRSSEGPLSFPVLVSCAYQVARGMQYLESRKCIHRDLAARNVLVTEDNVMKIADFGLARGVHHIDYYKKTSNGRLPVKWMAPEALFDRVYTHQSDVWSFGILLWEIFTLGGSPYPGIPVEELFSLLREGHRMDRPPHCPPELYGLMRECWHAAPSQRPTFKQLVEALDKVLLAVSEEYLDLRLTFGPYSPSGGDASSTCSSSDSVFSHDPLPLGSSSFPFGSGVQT
KIT, sequence (P10721 whole entry): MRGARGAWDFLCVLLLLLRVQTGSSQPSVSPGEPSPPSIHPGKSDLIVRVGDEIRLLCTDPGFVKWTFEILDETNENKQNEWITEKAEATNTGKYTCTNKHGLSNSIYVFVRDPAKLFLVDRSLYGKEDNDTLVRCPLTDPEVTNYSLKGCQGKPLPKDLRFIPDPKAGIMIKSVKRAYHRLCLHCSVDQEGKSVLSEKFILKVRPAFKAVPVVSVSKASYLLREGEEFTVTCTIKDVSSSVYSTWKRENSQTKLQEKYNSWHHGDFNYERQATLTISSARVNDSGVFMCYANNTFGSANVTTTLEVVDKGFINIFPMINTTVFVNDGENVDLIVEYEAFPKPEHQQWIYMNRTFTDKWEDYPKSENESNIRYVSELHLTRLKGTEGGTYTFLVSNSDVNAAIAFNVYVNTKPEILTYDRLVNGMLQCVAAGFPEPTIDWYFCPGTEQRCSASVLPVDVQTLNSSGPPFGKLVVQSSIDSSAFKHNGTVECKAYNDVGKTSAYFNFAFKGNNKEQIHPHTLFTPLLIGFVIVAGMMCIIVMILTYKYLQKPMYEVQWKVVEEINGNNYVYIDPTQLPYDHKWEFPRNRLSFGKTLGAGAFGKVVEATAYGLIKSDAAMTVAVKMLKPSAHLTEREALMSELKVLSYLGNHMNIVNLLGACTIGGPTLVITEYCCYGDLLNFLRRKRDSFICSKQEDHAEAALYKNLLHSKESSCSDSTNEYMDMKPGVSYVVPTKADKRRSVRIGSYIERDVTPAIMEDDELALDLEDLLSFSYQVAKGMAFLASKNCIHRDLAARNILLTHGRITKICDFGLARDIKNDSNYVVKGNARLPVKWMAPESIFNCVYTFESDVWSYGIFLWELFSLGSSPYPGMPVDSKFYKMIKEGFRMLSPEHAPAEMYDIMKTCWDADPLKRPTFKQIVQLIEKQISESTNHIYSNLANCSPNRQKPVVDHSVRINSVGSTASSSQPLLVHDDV

As for `N#CCCNc1nccc(-c2cn(CC(F)F)nc2-c2cnc3[nH]ccc3c2)n1` [RAFi, PF-04880594], the inhibition at 1 µM at ACVR1B (ALK4) is 7%; at CAMK4 (CaMKIV), -5%; on CSK it was 1%; at CSNK2A1 (CK2 alpha 1) it was -1%; at DAPK3 (ZIPK), 5%; on EGFR (ErbB1), 5%. Besides, the inhibition at 1 µM is 5% on FGFR4; 61% on FLT3; 57% on FLT3 D835Y; -7% on FRAP1 (mTOR); 36% at KIT; 12% on MAP2K6 (MKK6). The inhibition at 1 µM at MAPK8 (JNK1) was 31%; at MAPKAPK2, 3%; on PAK6, 10%; on PLK2 it was 37%; at RPS6KA1 (RSK1) it was 6%; on SGKL (SGK3) it was -1%. Also, the inhibition at 1 µM on SRC came to 1%; on STK22B (TSSK2) it was 2%; at YES1, 16%; at ZAP70, 3%.
